In patent US11149047B2, “Aryl imidazoles for treatment of cancer” (Aptose Biosciences Inc., priority 2017, dated 2021):

How the values were obtained:
Raji/COMPOUND IR cells = experiment: Cellular pharmacology: intracellular accumulation and efflux by LC-MS/MS; assay type: in vitro ADME, human
Protocol: Cells exposed to COMPOUND I or Fe(COMPOUND I)3 were homogenized in acetonitrile containing 5 ng of a deuterated COMPOUND I standard. Samples were analyzed at the UCSD Molecular Mass Spectrometry Facility employing an Agilent 1260 liquid chromatograph (LC) system coupled with a Thermo LCQdeca mass spectrometer using positive ion mode electrospray ionization (ESI) as the ion source. The ESI ion source voltage was set at 5 kV, with sheath gas flow rate of 80 units, auxiliary gas flow rate of 20 units, and capillary temperature of 250° C., respectively. A Phenomenex Kinetex Biphenyl column (ID 2.1 mm×length 50 mm, particle size 2.6 μm) was utilized for LC separation using water with 0.1% formic acid as the mobile phase A and acetonitrile with 0.1% formic acid as the mobile phase B. The LC flow rate was set at 0.30 mL/min. The LC gradient increased from 5% mobile phase B to 95% mobile phase B in 10 minutes, held at 95% B for 2 minutes, returned to 5% B in 1 minute, and then held at 5% B for 6 minutes. […] Selected reaction monitoring (SRM) mode was used to acquire the m/z 353 and m/z 359 fragmental peaks. The SRM peak area ratio (COMPOUND I/COMPOUND I-d6) related to the amount of spiked COMPOUND I-d6 was used for the quantification of COMPOUND I and Fe(COMPOUND I)3 in the samples. The same column, gradient and flow rate were used for detection of Fe(COMPOUND I)3 which was detected using an Agilent 1100 HPLC and Orbitrap XL (Thermo) mass spectrometer employing a Thermo IonMax ESI interface. The Fe(COMPOUND I)3 eluted around 11.5 minutes with these conditions. A 10:1 flow split was used for the eluent flow rate of 0.3 mL/min, so that approximately 0.030 mL/min was introduced into the ESI after the split. […]
Resistance in the Raji/COMPOUND IR cells may be due to alterations in influx or efflux, intracellular detoxification or a change in the primary target of the drug. The intracellular accumulation of both native COMPOUND I and the Fe(COMPOUND I)3 in Raji and Raji/COMPOUND IR cells incubated with either native COMPOUND I or the Fe(COMPOUND I)3 complex was monitored.

[1] = system: BIK, BAD, MCL-1 in Raji cells; experiment: Western blot of proteins involved in apoptosis; assay type: cell-based, human; conditions: 0.5 μM, 24 h, n=3
[2] = system: AML cell lines and various forms of lymphoma cell lines; experiment: Cytotoxicity study (MTS), cell line panel; assay type: cell-based; conditions: inhibition of proliferation; read-out: IC50 values, range over cell lines
Protocol: Cells were plated and treated with vehicle DMSO or COMPOUND I (10 concentrations) in 96-well plates for 5 days at 37° C. and 5% CO2. Cell viability was measured using CellTiter 96 AQueous one solution (MTS) cell proliferation assay (Promega, catalog #G3581), and IC50 values were calculated using GraphPad Prism 7 software.
Previous studies reported upregulation of KLF4 and CDKN1A expression as a potential mechanism of APT0-COMPOUND I activity in tumors. […] The upregulation of CDKN1A mRNA increased with duration of exposure in all AML cell lines tested (FIGS. 15D and 15E). At later time points, CDKN1A expression began to decrease, likely due to increasing cell death. Induction of CDKN1A expression is typically associated with a subsequent G0-G1, cell-cycle arrest, which was observed following COMPOUND I treatment of solid tumor lines.

MYC in AML cell lines = experiment: MYC mRNA (qRT-PCR) and protein (Western blot) levels; assay type: cell-based; conditions: all AML cell lines tested, 24 hours
Protocol: Cells were treated with vehicle or COMPOUND I at various concentrations for 24 hours or at a single concentration for 1, 3, 6, 12, and 24 hours before harvesting. Cells were lysed by QiaShredder columns (QIAGEN, catalog #79656), total RNA was isolated using QIAGEN RNeasy Plus Mini Kit (catalog #74134), and cDNA was synthesized utilizing Transcriptor Universal cDNA master mix (Roche, catalog #05893151001) and then used for qRT-PCR analysis using FastStart essential DNA probes master mix (Roche, catalog #06402682001) and Roche LightCycler96. Primer probe pairs were purchased from IDT (Table 5). Expression was calculated as fold change over vehicle treated samples after normalizing to GAPDH […].
Cells were treated as described above. Whole-cell lysates were prepared, separated by SDS-PAGE, and transferred to nitrocellulose membranes. Densitometry was performed using ImageJ or Image Studio Lite Version5.2 software and normalized to the density of GAPDH.
MYC expression is implicated in the pathogenesis of a wide range of cancers, including leukemia and lymphoma. […] It was also observed that an increased transcription of genes negatively regulated by MYC in COMPOUND I-treated MV4-11 cells. […] The time course of MYC protein repression in MV4-11 cells paralleled inhibition of MYC gene expression levels detected by RNA-seq. […]

Question: How did the “rate of accumulation in Raji/COMPOUND IR vs Raji cells” value (Raji/COMPOUND IR cells; 0.5 μM, FIG. 6A, 6B) turn out when `Cc1[nH]c2ccc(F)cc2c1-c1nc2c3cccnc3c3ncccc3c2[nH]1` [COMPOUND I, 2-(5-fluoro-2-methyl-1H-indol-3-yl)-1H-imidazo[4,5-f][1,10]phenanthroline] was run?
Answer: severely reduced

Question: And the “Rate of efflux over first 2 hours” value (Raji/COMPOUND IR cells; Raji/COMPOUND IR cells, mean ± SEM, n = 6)?
Answer: −0.26 ± 0.025 log fmole/10^7 cells/h

Question: What about the “difference in efflux over first 2 h between Raji and Raji/COMPOUND IR” value (Raji/COMPOUND IR cells; after loading of the cells) of the same compound?
Answer: no apparent difference in the efflux

Question: And the “BAD increase vs DMSO control” value [1]?
Answer: 2.1±0.25 fold

Question: And the “BIK increase vs DMSO control” value [1]?
Answer: 47.5±16.8%

Question: And the “MCL-1 decrease vs DMSO control” value [1]?
Answer: 38.1±2.3%

Question: What about the IC50 [2] of the same compound?
Answer: 57 to 1750 nM

Question: What about the “MYC mRNA and protein levels” value (MYC in AML cell lines) of the same compound?
Answer: concentration-dependent decrease in both MYC mRNA and protein levels
